Test system: MV-4-11 cells
Assay: Gene expression microarray analysis (Affymetrix PrimeView) and GSEA
Format: cell-based, human
Parameters: RFU PODN (11730768_x_at) / Fold change /veh PODN (11730768_x_at) / RFU LINC00158 (11744669_a_at) / Fold change /veh LINC00158 (11744669_a_at) / RFU DUSP10 (11751237_a_at) / Fold change /veh DUSP10 (11751237_a_at) / RFU ID3 (11757404_x_at) / Fold change /veh ID3 (11757404_x_at) / RFU PLEKHG5 (11737974_s_at) / Fold change /veh PLEKHG5 (11737974_s_at) / RFU LRRC4B (11730491_at) / Fold change /veh LRRC4B (11730491_at) / RFU GIMAP4 (11747438_a_at) / Fold change /veh GIMAP4 (11747438_a_at) / RFU KRT8 (11758183_x_at) / Fold change /veh KRT8 (11758183_x_at) / RFU CNN1 (11734310_a_at) / Fold change /veh CNN1 (11734310_a_at) / RFU VPS37D (11726825_at) / Fold change /veh VPS37D (11726825_at) / RFU C10orf10 (11716522_x_at) / Fold change /veh C10orf10 (11716522_x_at) / RFU KIR2DL2 /// KIR2DL4 /// KIR2DL5A /// KIR2DL5B /// KIR2DS1 /// KIR2DS2 /// KIR2DS3 /// KIR2DS4 /// KIR3DL3 /// KIR3DL3 /// KIR3DS1 (11738374_at) / Fold change /veh KIR2DL2 /// KIR2DL4 /// KIR2DL5A /// KIR2DL5B /// KIR2DS1 /// KIR2DS2 /// KIR2DS3 /// KIR2DS4 /// KIR3DL3 /// KIR3DL3 /// KIR3DS1 (11738374_at) / RFU C1QL1 (11718748_at) / Fold change /veh C1QL1 (11718748_at) / RFU TMPRSS4 (11747572_a_at) / Fold change /veh TMPRSS4 (11747572_a_at) / RFU HAMP (11756126_x_at) / Fold change /veh HAMP (11756126_x_at) / RFU RNFT2 (11725882_a_at) / Fold change /veh RNFT2 (11725882_a_at) / RFU NR4A2 (11747474_a_at) / Fold change /veh NR4A2 (11747474_a_at) / RFU ABCC12 (11746883_a_at) / Fold change /veh ABCC12 (11746883_a_at) / RFU TMEM136 (11760407_x_at) / Fold change /veh TMEM136 (11760407_x_at) / RFU CLDN22 /// WWC2 (11732394_at) / Fold change /veh CLDN22 /// WWC2 (11732394_at) / RFU HLA-DPB1 (11760878_x_at) / Fold change /veh HLA-DPB1 (11760878_x_at) / RFU SPINT1 (11716480_a_at) / Fold change /veh SPINT1 (11716480_a_at) / RFU GAP43 (11754022_s_at) / Fold change /veh GAP43 (11754022_s_at) / RFU A4GNT (11735810_at) / Fold change /veh A4GNT (11735810_at) / RFU PRB3 (11715151_x_at) / Fold change /veh PRB3 (11715151_x_at) / RFU TUBB4B (11761932_at) / Fold change /veh TUBB4B (11761932_at) / RFU CAPN14 (11732068_a_at) / Fold change /veh CAPN14 (11732068_a_at) / RFU TMCC2 (11721928_a_at) / Fold change /veh TMCC2 (11721928_a_at) / RFU IRGQ (11745062_a_at) / Fold change /veh IRGQ (11745062_a_at) / RFU FAM174B (11720279_a_at) / Fold change /veh FAM174B (11720279_a_at) / RFU TMPRSS4 (11748680_a_at) / Fold change /veh TMPRSS4 (11748680_a_at) / RFU FAM212B (11763350_a_at) / Fold change /veh FAM212B (11763350_a_at) / RFU PLEKHG5 (11743358_a_at) / Fold change /veh PLEKHG5 (11743358_a_at) / RFU ZSCAN30 (11745921_a_at) / Fold change /veh ZSCAN30 (11745921_a_at) / RFU CMKLR1 (11741424_a_at) / Fold change /veh CMKLR1 (11741424_a_at) / RFU LOC101060620 /// MAPK8IP1 (11723275_at) / Fold change /veh LOC101060620 /// MAPK8IP1 (11723275_at) / RFU SPTSSB (11747773_x_at) / Fold change /veh SPTSSB (11747773_x_at) / RFU PRSS12 (11739890_at) / Fold change /veh PRSS12 (11739890_at) / RFU BIN1 (11741810_x_at) / Fold change /veh BIN1 (11741810_x_at) / RFU WNT11 (11732464_a_at) / Fold change /veh WNT11 (11732464_a_at) / RFU C10orf10 (11716521_a_at) / Fold change /veh C10orf10 (11716521_a_at) / RFU C5orf56 (11738089_at) / Fold change /veh C5orf56 (11738089_at) / RFU CYB561 (11721691_x_at) / Fold change /veh CYB561 (11721691_x_at) / RFU ANKRD19P (11752326_a_at) / Fold change /veh ANKRD19P (11752326_a_at) / RFU OR2T12 /// OR2T33 /// OR2T8 (11738714_s_at) / Fold change /veh OR2T12 /// OR2T33 /// OR2T8 (11738714_s_at) / RFU VCAN (11748164_a_at) / Fold change /veh VCAN (11748164_a_at) / RFU JSRP1 (11732532_at) / Fold change /veh JSRP1 (11732532_at) / RFU KRTAP10-11 (11738290_x_at) / Fold change /veh KRTAP10-11 (11738290_x_at) / RFU MYO3A (11730013_a_at) / Fold change /veh MYO3A (11730013_a_at) / RFU EBF3 (11725865_a_at) / Fold change /veh EBF3 (11725865_a_at) / RFU CAMK2N1 (11719241_x_at) / Fold change /veh CAMK2N1 (11719241_x_at) / RFU C5orf56 (11738088_a_at) / Fold change /veh C5orf56 (11738088_a_at) / RFU OLFML3 (11715873_a_at) / Fold change /veh OLFML3 (11715873_a_at) / RFU LOC100653217 /// NTM (11731650_a_at) / Fold change /veh LOC100653217 /// NTM (11731650_a_at) / RFU MAPK11 (11762145_a_at) / Fold change /veh MAPK11 (11762145_a_at) / RFU FIZ1 (11724087_x_at) / Fold change /veh FIZ1 (11724087_x_at) / RFU OASL (11726364_x_at) / Fold change /veh OASL (11726364_x_at) / RFU SOX15 (11748057_x_at) / Fold change /veh SOX15 (11748057_x_at) / RFU CD79A (11719716_a_at) / Fold change /veh CD79A (11719716_a_at) / RFU HIST1H1D (11736915_at) / Fold change /veh HIST1H1D (11736915_at) / RFU CASKIN2 (11723855_a_at) / Fold change /veh CASKIN2 (11723855_a_at) / RFU LOC730098 (11760151_x_at) / Fold change /veh LOC730098 (11760151_x_at) / RFU OR4N2 (11742367_at) / Fold change /veh OR4N2 (11742367_at) / RFU PRRT2 (11749266_a_at) / Fold change /veh PRRT2 (11749266_a_at) / RFU SNX32 (11753110_a_at) / Fold change /veh SNX32 (11753110_a_at) / RFU CDHR5 (11726645_a_at) / Fold change /veh CDHR5 (11726645_a_at) / RFU RCAN1 (11760418_a_at) / Fold change /veh RCAN1 (11760418_a_at) / RFU FAM167A (11723789_a_at) / Fold change /veh FAM167A (11723789_a_at) / RFU FAM26E (11764081_at) / Fold change /veh FAM26E (11764081_at) / RFU ISYNA1 (11749810_s_at) / Fold change /veh ISYNA1 (11749810_s_at) / RFU ACY1 (11761880_at) / Fold change /veh ACY1 (11761880_at) / RFU 11764098_at / Fold change /veh 11764098_at / RFU SAMD14 (11745864_x_at) / Fold change /veh SAMD14 (11745864_x_at) / RFU NPB (11741838_a_at) / Fold change /veh NPB (11741838_a_at) / RFU TMPRSS6 (11731388_a_at) / Fold change /veh TMPRSS6 (11731388_a_at) / RFU KRTAP10-2 (11738614_at) / Fold change /veh KRTAP10-2 (11738614_at) / RFU ARHGAP8 /// PRR5-ARHGAP8 (11727945_x_at) / Fold change /veh ARHGAP8 /// PRR5-ARHGAP8 (11727945_x_at) / RFU KRTAP5-7 /// NADSYN1 (11734609_at) / Fold change /veh KRTAP5-7 /// NADSYN1 (11734609_at) / RFU RASL12 (11751679_a_at) / Fold change /veh RASL12 (11751679_a_at) / RFU CDKN2B (11736163_a_at) / Fold change /veh CDKN2B (11736163_a_at) / RFU PRF1 (11729649_at) / Fold change /veh PRF1 (11729649_at) / RFU, ZNF638 /// ZNF638-IT1 / Fold change vs veh, ZNF638 /// ZNF638-IT1 / RFU, PANK3 / Fold change vs veh, PANK3 / RFU, SH3YL1 / Fold change vs veh, SH3YL1 / RFU, ZEB2 / Fold change vs veh, ZEB2 / RFU, NRIP1 / Fold change vs veh, NRIP1 / RFU, PTTG1IP / Fold change vs veh, PTTG1IP / RFU, CAPN2 / Fold change vs veh, CAPN2 / RFU, MED14 / Fold change vs veh, MED14 / RFU, SNORA58 / Fold change vs veh, SNORA58 / RFU, C1orf63 / Fold change vs veh, C1orf63 / RFU, LRRFIP1 / Fold change vs veh, LRRFIP1 / RFU, NDUFAF7 / Fold change vs veh, NDUFAF7 / RFU, SLC12A2 / Fold change vs veh, SLC12A2 / RFU, IBTK / Fold change vs veh, IBTK / RFU, ESF1 / Fold change vs veh, ESF1 / Fold change vs veh, TMEM50B / RFU, TAOK1 / Fold change vs veh, TAOK1 / RFU, ACBD3 / Fold change vs veh, ACBD3 / RFU, TMA16 / Fold change vs veh, TMA16 / RFU, RWDD3 / Fold change vs veh, RWDD3 / RFU, BCAT1 / Fold change vs veh, BCAT1 / RFU, EDEM3 / Fold change vs veh, EDEM3 / RFU, TMEM33 / Fold change vs veh, TMEM33 / RFU, WDR75 / Fold change vs veh, WDR75 / RFU, AHCTF1 / Fold change vs veh, AHCTF1 / RFU, TFRC / Fold change vs veh, TFRC / RFU, ZDHHC17 / Fold change vs veh, ZDHHC17 / RFU, NOM1 / Fold change vs veh, NOM1 / RFU, ARL8B / Fold change vs veh, ARL8B / RFU, ZBTB11 / Fold change vs veh, ZBTB11 / RFU, TAMM41 / Fold change vs veh, TAMM41 / RFU, KIAA1704 /// LOC100996395 / Fold change vs veh, KIAA1704 /// LOC100996395 / RFU, ING1 / Fold change vs veh, ING1 / RFU, TRMT61B / Fold change vs veh, TRMT61B / RFU, FUBP3 / Fold change vs veh, FUBP3 / RFU, TP53 / Fold change vs veh, TP53 / RFU, TNKS2 / Fold change vs veh, TNKS2 / RFU, ZFP14 / Fold change vs veh, ZFP14 / RFU, ACTR2 / Fold change vs veh, ACTR2 / RFU, PPP3R1 / Fold change vs veh, PPP3R1 / RFU, PIK3R1 / Fold change vs veh, PIK3R1 / RFU, HNRNPA1 / Fold change vs veh, HNRNPA1 / RFU, RNF170 / Fold change vs veh, RNF170 / RFU, ZNF28 / Fold change vs veh, ZNF28 / RFU, RNGTT / Fold change vs veh, RNGTT / RFU, OGT / Fold change vs veh, OGT / RFU, BRD1 / Fold change vs veh, BRD1 / RFU, MARS / Fold change vs veh, MARS / RFU, ZNF655 / Fold change vs veh, ZNF655 / RFU, FAHD1 / Fold change vs veh, FAHD1 / RFU, BDP1 / Fold change vs veh, BDP1 / RFU, LRRCC1 / Fold change vs veh, LRRCC1 / RFU, ARID1A / Fold change vs veh, ARID1A / RFU, ZNF146 / Fold change vs veh, ZNF146 / RFU, ZNF330 / Fold change vs veh, ZNF330 / RFU, GPN3 / Fold change vs veh, GPN3 / RFU, C9orf123 / Fold change vs veh, C9orf123 / RFU, N4BP2L2 / Fold change vs veh, N4BP2L2 / RFU, ARFIP1 / Fold change vs veh, ARFIP1 / RFU, FAM179B / Fold change vs veh, FAM179B / RFU, BCL10 / Fold change vs veh, BCL10 / RFU, UHRF1BP1L / Fold change vs veh, UHRF1BP1L / RFU, BET1 / Fold change vs veh, BET1 / RFU, CNOT2 / Fold change vs veh, CNOT2 / RFU, ZNF268 / Fold change vs veh, ZNF268 / Fold change vs veh, ZNF507 / RFU, DGCR2 / Fold change vs veh, DGCR2 / RFU, WDSUB1 / Fold change vs veh, WDSUB1 / Fold change vs veh, HSP90B1 /// MIR3652 / RFU, ADSS / Fold change vs veh, ADSS / RFU, GK / Fold change vs veh, GK / RFU, ZNF148 / Fold change vs veh, ZNF148 / RFU, TAF9 / Fold change vs veh, TAF9 / RFU, SLC1A5 / Fold change vs veh, SLC1A5 / RFU, SLMO2 / Fold change vs veh, SLMO2 / RFU, ABCC4 / Fold change vs veh, ABCC4 / RFU, LOC101060439 /// RAP1B / Fold change vs veh, LOC101060439 /// RAP1B / RFU, RFX7 / Fold change vs veh, RFX7 / RFU, GTPBP10 / Fold change vs veh, GTPBP10 / RFU, CNEP1R1 / Fold change vs veh, CNEP1R1 / RFU, BIVM-ERCC5 /// ERCC5 / Fold change vs veh, BIVM-ERCC5 /// ERCC5 / RFU, ILF3 / Fold change vs veh, ILF3 / RFU 11762660_at / Fold change /veh 11762660_at / RFU VCAN (11757783_s_at) / Fold change /veh VCAN (11757783_s_at) / RFU DDX43 (11728927_at) / Fold change /veh DDX43 (11728927_at) / RFU KRT8 (11758188_x_at) / Fold change /veh KRT8 (11758188_x_at) / RFU NKD1 (11759106_at) / Fold change /veh NKD1 (11759106_at) / RFU SRD5A1 (11742802_a_at) / Fold change /veh SRD5A1 (11742802_a_at) / RFU TPSAB1 /// TPSB2 (11721975_s_at) / Fold change /veh TPSAB1 /// TPSB2 (11721975_s_at) / RFU GSTM3 (11746129_a_at) / Fold change /veh GSTM3 (11746129_a_at) / RFU IL23R (11737362_x_at) / Fold change /veh IL23R (11737362_x_at) / RFU TMEM51 (11727254_a_at) / Fold change /veh TMEM51 (11727254_a_at) / RFU PIWIL2 (11732686_x_at) / Fold change /veh PIWIL2 (11732686_x_at) / RFU ORM1 (11744905_x_at) / Fold change /veh ORM1 (11744905_x_at) / RFU CCDC152 (11743942_at) / Fold change /veh CCDC152 (11743942_at) / RFU ECM1 (11717891_a_at) / Fold change /veh ECM1 (11717891_a_at) / RFU IL23R (11748794_a_at) / Fold change /veh IL23R (11748794_a_at) / RFU TNFAIP8L3 (11732012_x_at) / Fold change /veh TNFAIP8L3 (11732012_x_at) / RFU MBOAT4 (11741988_at) / Fold change /veh MBOAT4 (11741988_at) / RFU 11764193_at / Fold change /veh 11764193_at / RFU TMEM53 (11763286_at) / Fold change /veh TMEM53 (11763286_at) / RFU MAGEB2 (11727129_at) / Fold change /veh MAGEB2 (11727129_at) / RFU TMEM200A (11744735_a_at) / Fold change /veh TMEM200A (11744735_a_at) / RFU CCDC152 (11751479_a_at) / Fold change /veh CCDC152 (11751479_a_at) / RFU FAM211A (11726209_a_at) / Fold change /veh FAM211A (11726209_a_at) / RFU RGS16 (11746705_a_at) / Fold change /veh RGS16 (11746705_a_at) / RFU VCAN (11755009_s_at) / Fold change /veh VCAN (11755009_s_at) / RFU RHOB (11743442_s_at) / Fold change /veh RHOB (11743442_s_at) / RFU RGS16 (11720943_a_at) / Fold change /veh RGS16 (11720943_a_at) / RFU RGS16 (11720944_at) / Fold change /veh RGS16 (11720944_at) / RFU, VPS4B / Fold change vs veh, VPS4B / RFU, CREB1 / Fold change vs veh, CREB1 / RFU, DNAJC13 / Fold change vs veh, DNAJC13 / RFU, GNAQ / Fold change vs veh, GNAQ / RFU, CDK5R1 / Fold change vs veh, CDK5R1 / RFU, ZRANB3 / Fold change vs veh, ZRANB3 / RFU, CUL4A / Fold change vs veh, CUL4A / RFU, CCNY / Fold change vs veh, CCNY / RFU, UFL1 / Fold change vs veh, UFL1 / RFU, COG3 / Fold change vs veh, COG3 / RFU, DIAPH2 / Fold change vs veh, DIAPH2 / RFU, SKA2 / Fold change vs veh, SKA2 / RFU, AFF3 / Fold change vs veh, AFF3 / RFU, LMF1 / Fold change vs veh, LMF1 / RFU, IPO11 / Fold change vs veh, IPO11 / RFU, DFFB / Fold change vs veh, DFFB / RFU, FOXP1 / Fold change vs veh, FOXP1 / RFU, CARD8 / Fold change vs veh, CARD8 / RFU, STRN3 / Fold change vs veh, STRN3 / RFU, ADK / Fold change vs veh, ADK / RFU, RASSF2 / Fold change vs veh, RASSF2 / RFU, WIPF1 / Fold change vs veh, WIPF1 / RFU, LARP1B / Fold change vs veh, LARP1B / RFU, RASA1 / Fold change vs veh, RASA1 / RFU, RB1 / Fold change vs veh, RB1 / RFU, PPFIA1 / Fold change vs veh, PPFIA1 / RFU, MAT2A / Fold change vs veh, MAT2A / RFU, CCT5 / Fold change vs veh, CCT5 / RFU, WDR92 / Fold change vs veh, WDR92 / RFU, CUX1 / Fold change vs veh, CUX1 / RFU, TTC7A / Fold change vs veh, TTC7A / RFU, TMEM135 / Fold change vs veh, TMEM135 / RFU, DEPTOR / Fold change vs veh, DEPTOR / RFU, CPM / Fold change vs veh, CPM / RFU, DNAJB6 / Fold change vs veh, DNAJB6 / RFU, CACNA2D3 / Fold change vs veh, CACNA2D3 / RFU, DTX4 / Fold change vs veh, DTX4 / RFU, TFCP2 / Fold change vs veh, TFCP2 / RFU, GMCL1 /// GMCL1P1 / Fold change vs veh, GMCL1 /// GMCL1P1 / RFU, AEBP2 / Fold change vs veh, AEBP2 / RFU, SNHG1 /// SNORD22 /// SNORD25 /// SNORD26 /// SNORD27 /// SNORD28 /// SNORD29 /// SNORD31 / Fold change vs veh, SNHG1 /// SNORD22 /// SNORD25 /// SNORD26 /// SNORD27 /// SNORD28 /// SNORD29 /// SNORD31 / Fold change (Aza/veh), C12orf56 (ProbeSet 11735607_a_at) / Fold change (ACY-1035/veh), C12orf56 (ProbeSet 11735607_a_at) / Fold change (Aza/veh), FGFR1OP (ProbeSet 11751329_s_at) / Fold change (ACY-1035/veh), FGFR1OP (ProbeSet 11751329_s_at) / Fold change (Aza/veh), VPS36 (ProbeSet 11739960_a_at) / Fold change (ACY-1035/veh), VPS36 (ProbeSet 11739960_a_at) / RFU SYPL1 (11715823_x_at) / Fold change /veh SYPL1 (11715823_x_at) / RFU IGFBP7 (11715501_s_at) / Fold change /veh IGFBP7 (11715501_s_at) / RFU REEP3 (11722064_at) / Fold change /veh REEP3 (11722064_at) / RFU IGLL1 (11728026_x_at) / Fold change /veh IGLL1 (11728026_x_at): dose or concentration left out as unconfirmed
Conditions: MV-4-11 cells, 48 hours

Which “Fold change /veh FAM212B (11763350_a_at)” value does the source give for `Nc1ncn([C@@H]2O[C@H](CO)[C@@H](O)[C@H]2O)c(=O)n1` [azacitidine] here?
Its value is 1.13.
